This note sets out measurements from article PMC8161015, “Antiplatelet Activity of Coumarins: In Vitro Assays on COX-1” (Molecules, 2021).

The target of this test is T1, COX-1 (Homo sapiens, UniProt P23219).
T1 construct: gene PTGS1; pure human recombinant enzyme (h-COX-1)
As to the kind of experiment: colorimetric TMPD oxidation assay with purified human COX-1, arachidonic acid substrate. It counts as biochemical.

As usually defined, the IC50 is the concentration that gives 50% inhibition.

T1 sequence (P23219 24-599): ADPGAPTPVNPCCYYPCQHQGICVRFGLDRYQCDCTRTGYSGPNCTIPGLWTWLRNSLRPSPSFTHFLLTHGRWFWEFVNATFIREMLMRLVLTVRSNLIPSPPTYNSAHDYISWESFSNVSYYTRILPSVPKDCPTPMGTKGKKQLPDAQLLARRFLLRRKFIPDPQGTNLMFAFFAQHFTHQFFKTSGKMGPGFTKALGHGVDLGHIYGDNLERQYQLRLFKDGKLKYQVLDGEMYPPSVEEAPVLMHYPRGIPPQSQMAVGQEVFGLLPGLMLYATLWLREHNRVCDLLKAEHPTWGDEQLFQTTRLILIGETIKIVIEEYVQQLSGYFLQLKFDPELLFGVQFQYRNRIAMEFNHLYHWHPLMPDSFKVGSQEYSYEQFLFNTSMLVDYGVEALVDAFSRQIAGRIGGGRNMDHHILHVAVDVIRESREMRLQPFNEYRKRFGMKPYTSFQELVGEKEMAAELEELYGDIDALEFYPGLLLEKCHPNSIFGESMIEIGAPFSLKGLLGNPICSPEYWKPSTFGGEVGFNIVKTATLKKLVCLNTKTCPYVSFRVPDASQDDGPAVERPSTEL

In turn, `O=c1ccc2cc(O[C@@H]3O[C@H](CO)[C@@H](O)[C@H](O)[C@H]3O)c(O)cc2o1` [a, 7-hydroxy-6-[(2 S, 3 R, 4 S, 5 S, 6 R)-3,4,5-trihydroxy-6-(hydroxymethyl)oxane-2-yl] oxychromen-2-one] gave an IC50 of 4.49 mM.
